Common to all, as to format: in vivo
Experiment [1] has as its system HN5 (human head and neck tumor line). Put plainly: HN5 subcutaneous human xenograft mouse model, anti-tumor activity. The settings on record: monotherapy, at highest dose; HN5 s.c. xenograft; FIG. 1. As to the method: HN5 cells were cultured in RPMI 1640+10% Fetal bovine serum, Sodium pyruvate and L-Glutamine at 37° in a 95/5% air/CO2 atmosphere. Cells were harvested following trypsin digestion and brought to a density of 2×10^6 cells/200 μl in PBS. Tumors were initiated by injection of the cell suspension subcutaneously in the axillary region.
For the xenograft models used here solid tumors were measured by electronic caliper measurement through the skin, measurements were typically made twice weekly. In the examples presented, tumors were monitored beyond the duration of therapy
Drugs were administered by P.O. or IV. routes. The title compound or salt thereof of Example 1 was formulated in aqueous 0.5% hydroxypropyl methylcellulose, 0.1% Tween 80 and administered as a suspension twice daily for 21 days as indicated in the respective figures. TAXOL® (paclitaxel) (Bristol Myers Squibb Co.) was purchased preformulated in Cremophor-EL saline and diluted into saline to a final Cremophor-EL concentration of 5 or 10% Cremophor-EL for 10 or 20 mg/kg TAXOL® (paclitaxel) therapy respectively. TAXOL® (paclitaxel) was administered IV., once a day, for 5 days (days 1-5 of Example 1 therapy) as indicated in the respective figures. […]

Experiment [2] has as its system BT474 (human breast tumor line). The experiment in a line: BT474 subcutaneous human xenograft mouse model, anti-tumor activity. The settings on record: monotherapy (Example 1 at the highest dose tested); BT474 s.c. xenograft; FIG. 2.
Procedure: The BT474 xenograft was maintained by serial transplantation in SCID mice. Tumors are initiated by injection of tumor fragments subcutaneously in the axillary region.
Drugs were administered by P.O. or IV. routes. The title compound or salt thereof of Example 1 was formulated in aqueous 0.5% hydroxypropyl methylcellulose, 0.1% Tween 80 and administered as a suspension twice daily for 21 days as indicated in the respective figures. TAXOL® (paclitaxel) (Bristol Myers Squibb Co.) was purchased preformulated in Cremophor-EL saline and diluted into saline to a final Cremophor-EL concentration of 5 or 10% Cremophor-EL for 10 or 20 mg/kg TAXOL® (paclitaxel) therapy respectively. TAXOL® (paclitaxel) was administered IV., once a day, for 5 days (days 1-5 of Example 1 therapy) as indicated in the respective figures. Carboplatin (Sigma) was formulated in saline and was administered I.V., once a day, for two 5 day periods as indicated in the respective figure (days 1-5 and 15-19 of Example 1 therapy).
The subject of experiment [3] is NCI H322 (human lung tumor line). Put plainly: NCI H322 subcutaneous human xenograft mouse model, anti-tumor activity. The settings on record: monotherapy; NCI H322 s.c. xenograft; FIG. 3. The protocol: Cells were harvested following trypsin digestion and brought to a density of 2×10^6 cells/200 μl in PBS. Tumors were initiated by injection of the cell suspension subcutaneously in the axillary region. In addition some experiments were performed following serial transplantation of tumor fragments in SCID mice. Tumors were initiated by injection of tumor fragments subcutaneously in the axillary region.

Each structure is given as a SMILES string.

On to `N.N.O=C([O-])C1(C(=O)[O-])CCC1.[Pt+2]` [Carboplatin, platinum, diammine [1,1-cyclobutane-dicarboxylate(2-)-O,O′]], for which the tumor growth inhibition result in experiment [1] is given as “about 45%”.

With `CS(=O)(=O)CCNCc1ccc(-c2ccc3ncnc(Nc4ccc(OCc5cccc(F)c5)c(Cl)c4)c3c2)o1` [Example 1, N-{3-Chloro-4-[(3-fluorobenzyl)oxy]phenyl}-6-[5-({[2-(methylsulfonyl)ethyl]amino}methyl)-2-furyl]-4-quinazolinamine], the figures for the tumor growth inhibition result in experiment [2], in experiment [3] and in experiment [1] were “about 90%”, 100-130% and “about 80%”, respectively.

As to `CC(=O)O[C@H]1C(=O)[C@@]2(C)[C@H]([C@H](OC(=O)c3ccccc3)[C@]3(O)C[C@H](OC(=O)[C@H](O)[C@@H](NC(=O)c4ccccc4)c4ccccc4)C(C)=C1C3(C)C)[C@]1(OC(C)=O)CO[C@@H]1C[C@@H]2O` [TAXOL® (paclitaxel), 5β,20-epoxy-1,2α,4,7β,10β,13α-hexa-hydroxytax-11-en-9-one 4,10-diacetate 2-benzoate 13-ester with (2R,3S)-N-benzoyl-3-phenylisoserine], the tumor growth inhibition entry in experiment [2] and in experiment [3] was “about 45%” each time.
